The record followed here is paper PMC5300872, “Convergent evolution of the arginine deiminase pathway: the ArcD and ArcE arginine/ornithine exchangers” (MicrobiologyOpen, 2016).

The assay concerns the target T1, ArcD1 (Lactococcus cremoris, UniProt A2RNI5).
T1 construct: plasmid pNZarcD1, nisin-inducible; expressed in L. lactis deltaarcD1D2 cells
T1 sequence (A2RNI5 1-526): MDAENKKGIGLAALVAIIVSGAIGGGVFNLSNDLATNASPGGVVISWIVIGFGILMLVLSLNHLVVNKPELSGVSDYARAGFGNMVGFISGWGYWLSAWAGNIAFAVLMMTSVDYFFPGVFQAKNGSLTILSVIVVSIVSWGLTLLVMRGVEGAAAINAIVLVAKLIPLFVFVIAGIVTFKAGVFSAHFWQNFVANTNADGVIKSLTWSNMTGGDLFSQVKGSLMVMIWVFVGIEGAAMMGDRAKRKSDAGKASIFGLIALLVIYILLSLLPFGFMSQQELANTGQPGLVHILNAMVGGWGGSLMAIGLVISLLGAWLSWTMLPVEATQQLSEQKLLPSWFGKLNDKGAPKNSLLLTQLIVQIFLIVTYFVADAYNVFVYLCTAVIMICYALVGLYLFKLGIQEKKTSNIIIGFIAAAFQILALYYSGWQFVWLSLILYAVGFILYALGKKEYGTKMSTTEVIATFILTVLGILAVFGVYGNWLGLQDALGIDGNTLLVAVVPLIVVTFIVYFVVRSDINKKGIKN
As to the kind of experiment: inhibition of […]L-ornithine uptake in resting cells. To be noted: read-out: ArcD1 / KI ^b (μm). The class given is cell-based.

On to `NC(=O)NCCC[C@H](N)C(=O)O` [L‐Citr, L‐citrulline], for which the Ki was found to be 529 ± 135 µM.
